Measured values as given in the supplement of paper PMC10307832.

What was measured:
Assay in all cases: relative viability (nuclei count vs DMSO), 5 days (fraction); higher = more cells survive
BEN = test system: BEN
Summary of the method: (§1)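 Lung cancer cell lines, seeded in 1536-well plates, were treated the following day by pin tool with a single drug or with five library-drug doses (not always all listed) in √10 steps on top of a fixed anchor-drug dose. Cells were fixed and nuclei stained in one step after 5 days, and nuclei were counted. Relative viability is the nuclei count for treated wells divided by that for vehicle wells, reported as medians of duplicate plates.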

NCI-H1666 = test system: NCI-H1666
Summary of the method: as §1

ChaGo-K-1 = test system: ChaGo-K-1
Summary of the method: as §1

NCI-H838 = test system: NCI-H838
Summary of the method: as §1

NCI-H650 = test system: NCI-H650
Summary of the method: as §1

UMC-11 = test system: UMC-11
Summary of the method: as §1

NCI-H661 = test system: NCI-H661
Summary of the method: as §1

LXF-289 = test system: LXF-289
Summary of the method: as §1

NCI-H1651 = test system: NCI-H1651
Summary of the method: as §1

PC-3 [JPC-3] = test system: PC-3 [JPC-3]
Summary of the method: as §1

LC-2-ad = test system: LC-2-ad
Summary of the method: as §1

LU99A = test system: LU99A
Summary of the method: as §1

LCLC-97TM1 = test system: LCLC-97TM1
Summary of the method: as §1

NCI-H322M = test system: NCI-H322M
Summary of the method: as §1

NCI-H596 = test system: NCI-H596
Summary of the method: as §1

NCI-H2087 = test system: NCI-H2087
Summary of the method: as §1

HCC-15 = test system: HCC-15
Summary of the method: as §1

HCC-78 = test system: HCC-78
Summary of the method: as §1

Q: With C=C1C(=O)O[C@@H](CCCCCCCC)[C@@H]1C(=O)O [C-75] + CC(C)C[C@H](NC(=O)[C@H](Cc1ccccc1)NC(=O)c1cnccn1)B(O)O [Bortezomib] (partner 0.002 µM) as the compound, how does the relative viability (BEN; first compound 0.08 µM) read?
A: 0.847

Q: And the relative viability (BEN; first compound 0.253 µM)?
A: 0.868

Q: And the relative viability (BEN; first compound 0.8 µM)?
A: 0.666

Q: And the relative viability (BEN; first compound 2.53 µM)?
A: 0.639

Q: And the relative viability (BEN; first compound 8 µM)?
A: 0.653

Q: And the relative viability (NCI-H1666; first compound 0.08 µM)?
A: 0.888

Q: And the relative viability (NCI-H1666; first compound 0.253 µM)?
A: 0.948

Q: And the relative viability (NCI-H1666; first compound 0.8 µM)?
A: 0.7

Q: And the relative viability (NCI-H1666; first compound 2.53 µM)?
A: 0.7

Q: What about the relative viability (NCI-H1666; first compound 8 µM) of the same compound?
A: 0.641

Q: And the relative viability (ChaGo-K-1; first compound 0.08 µM)?
A: 0.927

Q: What about the relative viability (ChaGo-K-1; first compound 0.253 µM) of the same compound?
A: 0.944

Q: What about the relative viability (ChaGo-K-1; first compound 0.8 µM) of the same compound?
A: 0.894

Q: What about the relative viability (ChaGo-K-1; first compound 2.53 µM) of the same compound?
A: 0.872

Q: What about the relative viability (ChaGo-K-1; first compound 8 µM) of the same compound?
A: 0.96

Q: What about the relative viability (NCI-H838; first compound 0.08 µM) of the same compound?
A: 0.66

Q: And the relative viability (NCI-H838; first compound 0.253 µM)?
A: 0.588

Q: And the relative viability (NCI-H838; first compound 0.8 µM)?
A: 0.8

Q: And the relative viability (NCI-H838; first compound 2.53 µM)?
A: 0.656

Q: And the relative viability (NCI-H838; first compound 8 µM)?
A: 0.684

Q: And the relative viability (NCI-H650; first compound 0.08 µM)?
A: 0.828

Q: What about the relative viability (NCI-H650; first compound 0.253 µM) of the same compound?
A: 0.691

Q: What about the relative viability (NCI-H650; first compound 0.8 µM) of the same compound?
A: 0.547

Q: What about the relative viability (NCI-H650; first compound 2.53 µM) of the same compound?
A: 0.745

Q: And the relative viability (NCI-H650; first compound 8 µM)?
A: 0.586

Q: And the relative viability (UMC-11; first compound 0.08 µM)?
A: 0.691

Q: And the relative viability (UMC-11; first compound 0.253 µM)?
A: 0.761

Q: And the relative viability (UMC-11; first compound 0.8 µM)?
A: 0.804

Q: And the relative viability (UMC-11; first compound 2.53 µM)?
A: 0.575

Q: And the relative viability (UMC-11; first compound 8 µM)?
A: 0.604

Q: What about the relative viability (NCI-H661; first compound 0.08 µM) of the same compound?
A: 0.696

Q: What about the relative viability (NCI-H661; first compound 0.253 µM) of the same compound?
A: 0.873

Q: What about the relative viability (NCI-H661; first compound 0.8 µM) of the same compound?
A: 0.731

Q: What about the relative viability (NCI-H661; first compound 2.53 µM) of the same compound?
A: 0.973

Q: What about the relative viability (NCI-H661; first compound 8 µM) of the same compound?
A: 0.655

Q: And the relative viability (LXF-289; first compound 0.08 µM)?
A: 0.945

Q: And the relative viability (LXF-289; first compound 0.253 µM)?
A: 0.984

Q: And the relative viability (LXF-289; first compound 0.8 µM)?
A: 0.889

Q: What about the relative viability (LXF-289; first compound 2.53 µM) of the same compound?
A: 0.951

Q: What about the relative viability (LXF-289; first compound 8 µM) of the same compound?
A: 0.989

Q: What about the relative viability (NCI-H1651; first compound 0.08 µM) of the same compound?
A: 0.92

Q: What about the relative viability (NCI-H1651; first compound 0.253 µM) of the same compound?
A: 0.894

Q: What about the relative viability (NCI-H1651; first compound 0.8 µM) of the same compound?
A: 0.875

Q: What about the relative viability (NCI-H1651; first compound 2.53 µM) of the same compound?
A: 0.843

Q: What about the relative viability (NCI-H1651; first compound 8 µM) of the same compound?
A: 0.886

Q: What about the relative viability (PC-3 [JPC-3]; first compound 0.08 µM) of the same compound?
A: 0.826

Q: What about the relative viability (PC-3 [JPC-3]; first compound 0.253 µM) of the same compound?
A: 0.839

Q: What about the relative viability (PC-3 [JPC-3]; first compound 0.8 µM) of the same compound?
A: 0.826

Q: And the relative viability (PC-3 [JPC-3]; first compound 2.53 µM)?
A: 0.581

Q: What about the relative viability (PC-3 [JPC-3]; first compound 8 µM) of the same compound?
A: 0.836

Q: And the relative viability (LC-2-ad; first compound 0.08 µM)?
A: 1.04

Q: What about the relative viability (LC-2-ad; first compound 0.253 µM) of the same compound?
A: 0.97

Q: What about the relative viability (LC-2-ad; first compound 0.8 µM) of the same compound?
A: 0.985

Q: And the relative viability (LC-2-ad; first compound 8 µM)?
A: 0.961

Q: What about the relative viability (LU99A; first compound 0.08 µM) of the same compound?
A: 1.1

Q: And the relative viability (LU99A; first compound 0.253 µM)?
A: 1.03

Q: And the relative viability (LU99A; first compound 0.8 µM)?
A: 1.08

Q: And the relative viability (LU99A; first compound 2.53 µM)?
A: 0.933

Q: And the relative viability (LU99A; first compound 8 µM)?
A: 0.885

Q: And the relative viability (LCLC-97TM1; first compound 0.08 µM)?
A: 0.636

Q: And the relative viability (LCLC-97TM1; first compound 0.253 µM)?
A: 0.595

Q: What about the relative viability (LCLC-97TM1; first compound 0.8 µM) of the same compound?
A: 0.222

Q: And the relative viability (LCLC-97TM1; first compound 2.53 µM)?
A: 0.477

Q: And the relative viability (LCLC-97TM1; first compound 8 µM)?
A: 0.218

Q: What about the relative viability (NCI-H322M; first compound 0.08 µM) of the same compound?
A: 1.36

Q: And the relative viability (NCI-H322M; first compound 0.253 µM)?
A: 1.45

Q: What about the relative viability (NCI-H322M; first compound 0.8 µM) of the same compound?
A: 1.21

Q: And the relative viability (NCI-H322M; first compound 2.53 µM)?
A: 1.09

Q: And the relative viability (NCI-H322M; first compound 8 µM)?
A: 1.25

Q: What about the relative viability (NCI-H596; first compound 0.08 µM) of the same compound?
A: 1.18

Q: And the relative viability (NCI-H596; first compound 0.253 µM)?
A: 1.18

Q: What about the relative viability (NCI-H596; first compound 0.8 µM) of the same compound?
A: 0.871

Q: And the relative viability (NCI-H596; first compound 2.53 µM)?
A: 0.996

Q: What about the relative viability (NCI-H596; first compound 8 µM) of the same compound?
A: 0.988

Q: What about the relative viability (NCI-H2087; first compound 0.08 µM) of the same compound?
A: 0.724

Q: What about the relative viability (NCI-H2087; first compound 0.253 µM) of the same compound?
A: 0.863

Q: And the relative viability (NCI-H2087; first compound 0.8 µM)?
A: 0.743

Q: What about the relative viability (NCI-H2087; first compound 2.53 µM) of the same compound?
A: 0.396

Q: What about the relative viability (NCI-H2087; first compound 8 µM) of the same compound?
A: 0.581

Q: And the relative viability (HCC-15; first compound 0.08 µM)?
A: 1.04

Q: And the relative viability (HCC-15; first compound 0.253 µM)?
A: 1.05

Q: What about the relative viability (HCC-15; first compound 0.8 µM) of the same compound?
A: 0.944

Q: And the relative viability (HCC-15; first compound 2.53 µM)?
A: 0.943

Q: And the relative viability (HCC-15; first compound 8 µM)?
A: 1.01

Q: What about the relative viability (HCC-78; first compound 0.08 µM) of the same compound?
A: 0.507

Q: And the relative viability (HCC-78; first compound 0.253 µM)?
A: 0.412

Q: And the relative viability (HCC-78; first compound 0.8 µM)?
A: 0.386

Q: And the relative viability (HCC-78; first compound 2.53 µM)?
A: 0.423

Q: What about the relative viability (HCC-78; first compound 8 µM) of the same compound?
A: 0.472
